Reference: PubChem BioAssay (NCI)
“And” between values parts separate entries of the source, which are not always exact repeats. Equal entries are not always repeated.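 Growth conditions: 96-well plates. Treatment: test compound, 48 hours, 5 concentrations. Analysis: linear interpolation between bracketing concentrations; unreached endpoints set to highest concentration. GI50 = concentration required for 50% inhibition of growth. TGI denotes the concentration required for complete inhibition of growth.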

These compounds were tested on MDA-MB-468 breast (assay: DTP human tumour cell line panel, 48 h).
With `CC1(C)N=C(N)N=C(N)N1c1ccc(OCCCCNC(=O)c2ccc(S(=O)(=O)F)cc2)c(Cl)c1` the GI50 was 18.4 µM and the TGI was greater than 100 µM. In the case of `Cc1ccc(/C=C2\CN(Cc3cn(CCNc4ccnc5cc(Cl)ccc45)nn3)C/C(=C\c3ccc(C)cc3)C2=O)cc1`, the GI50 was 1.62 µM and the TGI was 3.72 µM. For `Cc1ccc(S(=O)(=O)c2ccsc2N)cc1`, the GI50 was 36.7 µM and the TGI was greater than 100 µM. `NS(=O)(=O)c1ccc(Nc2nc(N/N=C/c3ccccn3)nc(Nc3ccccc3)n2)cc1` was tested, and the GI50 was 0.318 µM and the TGI was 2.01 µM. `CS(=O)(=O)Nc1cc(-c2ccc3ncnc(Nc4cccc(Cl)c4F)c3c2)cnc1Cl` gave a GI50 of 1.28 µM and a TGI of 3.44 µM. For `O=c1oc2cc(OS(=O)(=O)c3ccccc3)ccc2c2c1CCCCC2`, the GI50 was 2.85 µM and the TGI was greater than 100 µM. `O=C(c1ccccc1)c1ccccc1C(=O)c1ccccc1` was tested, and the GI50 was 28.7 µM and the TGI was greater than 100 µM. Work on `C=C1C[C@@H]2[C@H](CC[C@]3(C)C(=O)CC[C@@H]23)[C@@]2(C)C=CC(=O)C=C12` yielded a GI50 of 14.6 µM and a TGI of 65.2 µM. In the case of `CCC(=O)OC1=CN2C(=NC(c3ccc(N)cc3)=CC2c2cc(OC)c(OC)c(OC)c2)S1` (stereo not drawn), the GI50 was 2.1 µM and the TGI was 6.32 µM. `O=C(Nc1cccc([N+](=O)[O-])c1)c1cc2ccccc2cc1O` gave a GI50 of 2.32 µM and a TGI of 17.5 µM. With `Cc1ccc2cnc(N)c(C#Cc3cncc(C(=O)Nc4ccc(CN5CCN(C)CC5)c(C(F)(F)F)c4)c3)c2c1` the GI50 was 0.662 µM and the TGI was 1.47 µM. Work on `c1cc2ccc1CNCCN1CCNCc3ccc(cc3)Oc3ccc(cc3)CNCCN(CCNCc3ccc(cc3)O2)CCNCc2ccc(cc2)Oc2ccc(cc2)CNCC1` yielded a GI50 of 0.673 µM and a TGI of 2.09 µM. For `C[C@H]1CC2=CC(=O)CC[C@]2(C)[C@H]2CC[C@@]3(C)[C@@H](CC[C@]3(C)O)[C@H]12`, the GI50 was 33.9 µM and the TGI was greater than 100 µM. With `Cc1nc2sc(C(=O)Nc3cccc(Cl)c3C)c(N)c2cc1C(C)O` (stereo not drawn) the GI50 was 0.0712 µM and the TGI was 4.44 µM. `Cn1c(O)c(N=NC(N)=S)c2ccccc21` was tested, and the GI50 was 20.4 µM and the TGI was greater than 100 µM. `FC(F)(F)c1cc(NC2=NCCN=C(Nc3cc(C(F)(F)F)cc(C(F)(F)F)c3)SS2)cc(C(F)(F)F)c1` gave a GI50 of 2.07 µM and a TGI of 7.45 µM. Work on `O=S1(=O)CC(Br)C(Br)C1` (stereo not drawn) yielded a GI50 of 1.39 µM and a TGI of 3.82 µM. `N#Cc1ncc(N2C(=O)C3(CCC3)N(c3ccc(OC4CCNCC4)nc3)C2=S)cc1C(F)(F)F` showed a GI50 of 9.8 µM and a TGI of 24.6 µM. `O=c1[nH]cnc2nc(-c3ccc(N(CCCl)CCCl)cc3)[nH]c12` gave a GI50 greater than 100 µM and a TGI greater than 100 µM. Compound `Brc1ccc2c(c1)c(-c1nc(-c3c[nH]c4ncccc34)cs1)cn2CCCN1CCCCC1` has a GI50 of 1.7 µM and a TGI of 3.25 µM. `CC(C)(F)C[C@H](N[C@@H](c1ccc(-c2ccc(S(C)(=O)=O)cc2)cc1)C(F)(F)F)C(=O)NC1(C#N)CC1` was tested, and the GI50 was 54.4 µM and > 100 µM and the TGI was 55 µM and > 100 µM. Compound `O=C(Nc1ccc(-c2ccnc(Nc3ccc(N4CCOCC4)cc3)n2)cc1)C1CCCN1` (stereo not drawn) has a GI50 of 10.2 µM and a TGI of 26.3 µM. For `NC(=S)N/N=C\c1nccc2c(C(F)(F)C(F)(F)C(F)(F)F)cccc12`, the GI50 was 0.04 µM and the TGI was 0.262 µM. Compound `Cc1[nH]n(-c2ccccc2)c(=O)c1C(=O)c1ccccc1` has a GI50 of 17.5 µM and a TGI greater than 25 µM. With `C=C(C)[C@@H]1CC[C@]2(C)[C@H](CC=C3[C@@H]4[C@H](C)[C@@H](C)CC[C@]4(CO)CC[C@]32C)[C@@]1(C)CCCN` the GI50 was 0.819 µM and the TGI was 1.66 µM. `C#CCOc1cccc(Nc2ncc3ncn(C4CCN(C(=O)CCl)C4)c3n2)c1` (stereo not drawn) was tested, and the GI50 was 19.7 µM and the TGI was greater than 62.5 µM. Compound `CCN(CC)CCOc1nc2cc(OC)c(OC)cc2c2c1-c1ccc(OC)cc1C2=O` has a GI50 of 10.1 µM and a TGI of 23.1 µM. With `COc1cc(CNC(=O)CCSc2nc3ccccc3c(=O)n2Cc2cc(OC)c(OC)c(OC)c2)cc(OC)c1OC` the GI50 was 2.35 µM and the TGI was 9.67 µM. `CCCNc1cccc(-n2ncc3c(N/N=C/c4ccncc4)ncnc32)c1` gave a GI50 of 0.768 µM and a TGI greater than 25 µM. In the case of `C=C1C(=O)O[C@H]2[C@H]1CC/C(COC(=O)/C=C/c1c[nH]c3ccccc13)=C\CC[C@@]1(C)O[C@@H]21`, the GI50 was 0.196 µM and the TGI was 0.404 µM. Compound `O=C(O)c1ccc2cccnc2c1O` has a GI50 of 1.41 µM and a TGI of 6.5 µM. Work on `O[C@H](CN1CC1)[C@@H](O)CN1CC1` yielded a GI50 of 0.389 µM and a TGI of 2.65 µM. `Cc1cc(Cl)ccc1NC(=O)NC(C)(C)COC(=O)Nc1cccc(Cl)c1` gave a GI50 of 4.61 µM and a TGI of 36 µM. In the case of `COc1cc2c(cc1O)CC[C@@H]1C2CC[C@@]2(C)C1CC[C@@H]2O` (stereo partly drawn), the GI50 was 31.1 µM and the TGI was greater than 100 µM. `OC1CCN(CCCOc2c3ccccc3nc3c2oc2ccc(Cl)cc23)CC1` gave a GI50 of 1.61 µM and a TGI of 5.71 µM. With `CC[C@H](C)[C@H](NC(=O)c1nccn1C)C(=O)N(C)[C@H](C[C@@H](OC(C)=O)c1nc(C(=O)N[C@@H](Cc2ccccc2)C[C@H](C)C(=O)OC)cs1)C(C)C` the GI50 was 0.427 µM and the TGI was greater than 33.3 µM. Work on `CN1CCc2c(sc3ncnc(N/N=C/c4ccc(Cl)c(Cl)c4)c23)C1` yielded a GI50 of 10.9 µM and a TGI of 25.8 µM. With `COc1ccc(S(=O)(=O)n2c3ccccc3n3ncc(-c4nnc(C)o4)c23)cc1` the GI50 was 0.266 µM and the TGI was 5.49 µM. In the case of `N#CC1CCc2c(c(-c3cn[nH]c3C(F)(F)F)nc3c(F)cc4[nH]ncc4c23)C1` (stereo not drawn), the GI50 was 2.19 µM and the TGI was 6.23 µM.
